Where two headings read alike, the source gives them in different places. Ends that are not written are not given here.
Tests used:
OdDHL = format: biochemical, Pseudomonas aeruginosa
BHL = format: biochemical, Pseudomonas aeruginosa
E. coli D31 = format: cell-based

Compound | effect of inhibitor on OdDHL degradation by ES (OdDHL) | effect of pre-incubation of ES with inhibitor on BHL degradation (BHL) | antimicrobial plaque diameter (E. coli D31; 2 μl Cecropin B at 10 μg/ml) [mm] | antimicrobial plaque diameter (E. coli D31; 2 μl Cecropin B at 100 μg/ml) [mm]
O=S(=O)(F)Cc1ccccc1 [PMSF, phenylmethanesulphonyl fluoride] | inhibited | degradation was prevented | – | –
Cecropin B (KWKVFKKIEKMGRNIRNGIVKAGPAIAVLGEAKAL; ends and bridges not checked; UniProt P01508 27-61, looked up) [Cecropin B (Sigma), anti-microbial standard] | – | – | 4.25 | 8
